Measured values as given in US9873709B2 (priority 2013, dated 2018).

Each molecule was assayed on JAK1-dependent STAT6 phosphorylation downstream of IL-13 stimulation in TF-1 human erythroleukemia cells (assay: cells). Conditions: TF-1, read-out: IL-13-pSTAT6 IC50.
In the case of `CN(C)c1ccc(C2CCCN(C(=O)c3ccc(Nc4nc5c(C6=CCN(C(=O)CCC(F)(F)F)CC6)cccn5n4)cc3)C2)nc1` (centres unmarked) [Example 2-51, 1-[4-[2-[4-[3-[5-(dimethylamino)-2-pyridyl]piperidine-1-carbonyl]anilino]-[1,2,4]triazolo[1,5-a]pyridin-8-yl]-3,6-dihydro-2H-pyridin-1-yl]-4,4,4-trifluoro-butan-1-one], the IC50 is reported as 70.2 nM. Work on `CN1CCC(N(C)C(=O)c2ccc(Nc3nc4c(C5=CCN(CC#N)CC5)cccn4n3)cc2)CC1` [Example 2-52, 4-[[8-[1-(cyanomethyl)-3,6-dihydro-2H-pyridin-4-yl]-[1,2,4]triazolo[1,5-a]pyridin-2-yl]amino]-N-methyl-N-(1-methyl-4-piperidyl)benzamide] yielded an IC50 of 60 nM. `CN1CCC(N(C)C(=O)c2ccc(Nc3nc4c(C5=CCN(C(=O)CC(C)(C)C)CC5)cccn4n3)cc2)CC1` [Example 2-54, 4-[[8-[1-(3,3-dimethylbutanoyl)-3,6-dihydro-2H-pyridin-4-yl]-[1,2,4]triazolo[1,5-a]pyridin-2-yl]amino]-N-methyl-N-(1-methyl-4-piperidyl)benzamide] was tested, and the IC50 was 16.3 nM. Work on `CCOC(=O)N1CC=C(c2cccn3nc(Nc4ccc(C(=O)N5CC(NC)C5)cc4)nc23)CC1` [Example 2-55, Ethyl 4-[2-[4-[3-(methylamino)azetidine-1-carbonyl]anilino]-[1,2,4]triazolo[1,5-a]pyridin-8-yl]-3,6-dihydro-2H-pyridine-1-carboxylate] yielded an IC50 of 10 nM. For `CCOC(=O)N1CC=C(c2cccn3nc(Nc4ccc(C(=O)NC5CCN(C)CC5)cc4)nc23)CC1` [Example 2-60, ethyl 4-[2-[4-[(1-methyl-4-piperidyl)carbamoyl]anilino]-[1,2,4]triazolo[1,5-a]pyridin-8-yl]-3,6-dihydro-2H-pyridine-1-carboxylate], the IC50 was 20.4 nM. `CCOC(=O)N1CC=C(c2cccn3nc(Nc4ccc(C(=O)N5CCC(c6ccncc6)C5)cc4)nc23)CC1` (centres unmarked) [Example 2-62, ethyl 4-[2-[4-[3-(4-pyridyl)pyrrolidine-1-carbonyl]anilino]-[1,2,4]triazolo[1,5-a]pyridin-8-yl]-3,6-dihydro-2H-pyridine-1-carboxylate] gave an IC50 of 30 nM. `CCOC(=O)N1CC=C(c2cccn3nc(Nc4ccc(C(=O)N5CCCC5c5ccc(C)cn5)cc4)nc23)CC1` (centres unmarked) [Example 2-67, ethyl 4-[2-[4-[2-(5-methyl-2-pyridyl)pyrrolidine-1-carbonyl]anilino]-[1,2,4]triazolo[1,5-a]pyridin-8-yl]-3,6-dihydro-2H-pyridine-1-carboxylate] was tested, and the IC50 was 40.9 nM. `CCOC(=O)N1CC=C(c2cccn3nc(Nc4ccc(C(=O)N5CC6(CCN(C)C6)C5)cc4)nc23)CC1` [Example 2-68, ethyl 4-[2-[4-(7-methyl-2,7-diazaspiro[3.4]octane-2-carbonyl)anilino]-[1,2,4]triazolo[1,5-a]pyridin-8-yl]-3,6-dihydro-2H-pyridine-1-carboxylate] was tested, and the IC50 was 11.9 nM. In the case of `CCOC(=O)N1CC=C(c2cccn3nc(Nc4ccc(C(=O)N5Cc6cccnc6C5)cc4)nc23)CC1` [Example 2-70, ethyl 4-[2-[4-(5,7-dihydropyrrolo[3,4-b]pyridine-6-carbonyl)anilino]-[1,2,4]triazolo[1,5-a]pyridin-8-yl]-3,6-dihydro-2H-pyridine-1-carboxylate], the IC50 is reported as 29.8 nM. For `CCOC(=O)N1CC=C(c2cccn3nc(Nc4ccc(C(=O)N5CC(N)C5)cc4)nc23)CC1` [Example 2-74, ethyl 4-[2-[4-(3-aminoazetidine-1-carbonyl)anilino]-[1,2,4]triazolo[1,5-a]pyridin-8-yl]-3,6-dihydro-2H-pyridine-1-carboxylate], the IC50 was 18.9 nM. Work on `CCOC(=O)N1CC=C(c2cccn3nc(Nc4ccc(C(=O)N5CC6(CNC6)C5)cc4)nc23)CC1` [Example 2-77, ethyl 4-[2-[4-(2,6-diazaspiro[3.3]heptane-2-carbonyl)anilino]-[1,2,4]triazolo[1,5-a]pyridin-8-yl]-3,6-dihydro-2H-pyridine-1-carboxylate] yielded an IC50 of 134 nM. For `CCOC(=O)N1CC=C(c2cccn3nc(Nc4ccc(C(=O)N5CCC6(CCNC6)C5)cc4)nc23)CC1` (centres unmarked) [Example 2-78, ethyl 4-[2-[4-(2,7-diazaspiro[4.4]nonane-2-carbonyl)anilino]-[1,2,4]triazolo[1,5-a]pyridin-8-yl]-3,6-dihydro-2H-pyridine-1-carboxylate], the IC50 was 360 nM. Work on `NCC1CCCN1C(=O)c1ccc(Nc2nc3c(C4=CCN(C(=O)CCC(F)(F)F)CC4)cccn3n2)cc1` (centres unmarked) [Example 2-80, 1-[4-[2-[4-[2-(aminomethyl)pyrrolidine-1-carbonyl]anilino]-[1,2,4]triazolo[1,5-a]pyridin-8-yl]-3,6-dihydro-2H-pyridin-1-yl]-4,4,4-trifluoro-butan-1-one] yielded an IC50 of 79.4 nM. Work on `O=C(CCC(F)(F)F)N1CC=C(c2cccn3nc(Nc4ccc(C(=O)N5CC6(CCNCC6)C5)cc4)nc23)CC1` [Example 2-81, 1-[4-[2-[4-(2,7-diazaspiro[3.5]nonane-2-carbonyl)anilino]-[1,2,4]triazolo[1,5-a]pyridin-8-yl]-3,6-dihydro-2H-pyridin-1-yl]-4,4,4-trifluoro-butan-1-one] yielded an IC50 of 60 nM. With `O=C(CCC(F)(F)F)N1CC=C(c2cccn3nc(Nc4ccc(C(=O)N5CCOC6(CCCNC6)C5)cc4)nc23)CC1` (centres unmarked) [Example 2-82, 4,4,4-trifluoro-1-[4-[2-[4-(1-oxa-4,8-diazaspiro[5.5]undecane-4-carbonyl)anilino]-[1,2,4]triazolo[1,5-a]pyridin-8-yl]-3,6-dihydro-2H-pyridin-1-yl]butan-1-one] the IC50 was 224 nM. `O=C(NCC1CCC2(CCNCC2)O1)c1ccc(Nc2nc3c(C4=CCN(C(=O)CCC(F)(F)F)CC4)cccn3n2)cc1` (centres unmarked) [Example 2-83, N-(1-oxa-8-azaspiro[4.5]decan-2-ylmethyl)-4-[[8-[1-(4,4,4-trifluorobutanoyl)-3,6-dihydro-2H-pyridin-4-yl]-[1,2,4]triazolo[1,5-a]pyridin-2-yl]amino]benzamide] was tested, and the IC50 was 197 nM. In the case of `O=C(NCC1CCNCC1)c1ccc(Nc2nc3c(C4=CCN(C(=O)CCC(F)(F)F)CC4)cccn3n2)cc1` [Example 2-84, N-(4-piperidylmethyl)-4-[[8-[1-(4,4,4-trifluorobutanoyl)-3,6-dihydro-2H-pyridin-4-yl]-[1,2,4]triazolo[1,5-a]pyridin-2-yl]amino]benzamide], the IC50 is reported as 71.4 nM. With `CNC1CCN(C(=O)c2ccc(Nc3nc4c(C5=CCN(C(=O)CCC(F)(F)F)CC5)cccn4n3)cc2)C1` (centres unmarked) [Example 2-85, 4,4,4-trifluoro-1-[4-[2-[4-[3-(methylamino)pyrrolidine-1-carbonyl]anilino]-[1,2,4]triazolo[1,5-a]pyridin-8-yl]-3,6-dihydro-2H-pyridin-1-yl]butan-1-one] the IC50 was 62.6 nM. `O=C(NCCC1CCNCC1)c1ccc(Nc2nc3c(C4=CCN(C(=O)CCC(F)(F)F)CC4)cccn3n2)cc1` [Example 2-86, N-[2-(4-piperidyl)ethyl]-4-[[8-[1-(4,4,4-trifluorobutanoyl)-3,6-dihydro-2H-pyridin-4-yl]-[1,2,4]triazolo[1,5-a]pyridin-2-yl]amino]benzamide] was tested, and the IC50 was 216 nM. `CN1CC2CN(C(=O)c3ccc(Nc4nc5c(C6=CCN(C(=O)CCC(F)(F)F)CC6)cccn5n4)cc3)CC2C1` (centres unmarked) [Example 2-87, 4,4,4-trifluoro-1-[4-[2-[4-(2-methyl-1,3,3a,4,6,6a-hexahydropyrrolo[3,4-c]pyrrole-5-carbonyl)anilino]-[1,2,4]triazolo[1,5-a]pyridin-8-yl]-3,6-dihydro-2H-pyridin-1-yl]butan-1-one] showed an IC50 of 8.6 nM.
